Measurements from US7745139B1, “Peptides of the AT1 receptor and their uses” (Max-Delbrück-Centrum für Molekulare Medizin, priority 1998, dated 2010).
“Also recorded” adds a separate entry of the source.

Key:
[1] = biological target: T1, AT1 receptor (Rattus norvegicus, UniProt P25095); test: Bioassay: beat frequency of spontaneously pulsing cultivated neo-natal rat heart cells (cardiomyocytes); type: cell-based; conditions: for Influence on the positively chronotropic effect of angiotensin II: cells stimulated with angiotensin II; for Influence of receptor blockers on the positively chronotropic effect of the auto-antibodies: cells stimulated with anti-AT1 receptor auto-antibody
T1 construct: endogenous in cells; host or cells: primary culture of spontaneously pulsing neonatal rat cardiomyocytes
T1 sequence (P25095 1-359): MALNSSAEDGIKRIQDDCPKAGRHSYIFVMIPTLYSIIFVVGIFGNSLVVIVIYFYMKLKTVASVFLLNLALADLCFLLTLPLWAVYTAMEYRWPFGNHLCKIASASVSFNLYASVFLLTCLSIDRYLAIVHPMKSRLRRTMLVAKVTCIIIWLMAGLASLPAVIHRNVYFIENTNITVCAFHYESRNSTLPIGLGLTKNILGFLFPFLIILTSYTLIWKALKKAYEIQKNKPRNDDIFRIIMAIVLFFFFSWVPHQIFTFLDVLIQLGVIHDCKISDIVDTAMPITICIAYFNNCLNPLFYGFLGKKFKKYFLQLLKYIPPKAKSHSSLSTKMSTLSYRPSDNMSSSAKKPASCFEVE
From the text: The bio-assay entails • spontaneously pulsing neo-natal cardiomyocytes in primary culture or • cardiomyocytes differentiated from undifferentiated embryonal stem cells • in one culture medium
(§1) Cultivated neo-natal rat heart cells were used as a bioassay.
To identify and characterise the AT1 receptor antibodies, a sensitive bioassay was used. […] In order to identify the epitopes of the auto-antibodies on the second extra-cellular loops of the angiotensin II AT1 receptor, an attempt was made to neutralise the anti-AT1 receptor auto-antibodies with short overlapping peptides. […] I.

[2] = tested on: anti-AT1 receptor auto-antibodies; test: Neutralisation of patients' antibodies by pre-treatment with AT1 receptor peptides, read out in the cardiomyocyte bioassay; type: cell-based, human; conditions: for Patients' antibodies, pre-treated with peptide (beat frequency bioassay): antibody 1:40 + peptide; for Annulment of the effect of the antibody by epitope peptides: antibodies of hypertension sufferers; for Neutralisation/inhibition of the agonistic effect of the auto-antibodies on the cells: antibodies of preeclampsia patients
From the text: as §1
To identify and characterise the AT1 receptor antibodies, a sensitive bioassay was used. […] Further, this agonistic effect was neutralised by a peptide corresponding to the second extra-cellular loop of the AT1 receptor. In order to identify the epitopes of the auto-antibodies on the second extra-cellular loops of the angiotensin II AT1 receptor, an attempt was made to neutralise the anti-AT1 receptor auto-antibodies with short overlapping peptides. […] These were the epitopes ENTNIT and AFHYESQ. In preeclampsia patients, the agonistic effect of the antibodies achieved via the AT1 receptor was only neutralised by the peptide AFHYESQ. This epitope has a special importance in this disease, as it was identified in all the patients examined. […] I.

| Compound | Patients' antibodies, pre-treated with peptide (beat frequency bioassay) ([2]; Patient No. 1) | Patients' antibodies, pre-treated with peptide (beat frequency bioassay) ([2]; Patient No. 2) | Neutralisation/inhibition of the agonistic effect of the auto-antibodies on the cells [2] | other results |
| --- | --- | --- | --- | --- |
| CCCCc1nc(Cl)c(CO)n1Cc1ccc(-c2ccccc2-c2nn[nH]n2)cc1 [Losartan] | – | – | – | Influence on the positively chronotropic effect of angiotensin II [1]: blocked; Influence on the positively chronotropic effect of angiotensin II ([1]; listed as Losastan): inhibited; Influence of receptor blockers on the positively chronotropic effect of the auto-antibodies [1]: stopped; Influence of receptor blockers on the positively chronotropic effect of the auto-antibodies ([1]; listed as Losastan): inhibited |
| Cc1cc(Cn2cnc3c2C[C@@H](C(=O)O)N(C(=O)C(c2ccccc2)c2ccccc2)C3)ccc1N(C)C [PD 123319] | – | – | – | Influence of receptor blockers on the positively chronotropic effect of the auto-antibodies [1]: no influence |
| AFHYESQ | 1.2 ± 0.84 | 1.6 ± 1.24 | inhibits the effect; also recorded: neutralised | Annulment of the effect of the antibody by epitope peptides [2]: annul the effect of the antibody |
| ENTNIT | – | – | – | Annulment of the effect of the antibody by epitope peptides [2]: annul the effect of the antibody |
| angiotensin II [angiotensin-II] | – | – | – | Chronotropic effect on cardiomyocytes (beat frequency / pulsation rate) ([1]; agonist alone): increase of the beat frequency |
| loop II peptides: peptides portraying the part of the AT1 receptor corresponding to loop II (IHRNVFFIENTNITVCAFHYESQNSTL) | – | – | inhibit the antibody effect | Neutralisation/inhibition of the agonistic effect of the auto-antibodies on the cells ([2]; listed as peptide corresponding to the second extra-cellular loop of the AT1 receptor): neutralised |

Now from value to compound, other results behind:

| Patients' antibodies, pre-treated with peptide (beat frequency bioassay) ([2]; Patient No. 1) | Patients' antibodies, pre-treated with peptide (beat frequency bioassay) ([2]; Patient No. 2) | Compound | Neutralisation/inhibition of the agonistic effect of the auto-antibodies on the cells [2] | other results |
| --- | --- | --- | --- | --- |
| 2.4 ± 0.72 | 2.8 ± 1.20 | GYYFDTN [function-analog peptide] | neutralise the antibodies | – |
| 0.8 ± 1.16 | 0.8 ± 0.80 | SHFYQTR [function-analog peptide] | neutralise the antibodies | – |
